In EP4596561A1, “PHOSPHORUS-CONTAINING COMPOUND, PHARMACEUTICAL COMPOSITION AND USE THEREOF” (Suzhou Genhouse Bio Co., Ltd., priority 2022, dated 2024):

Key:
[1] = Saturated solubility in FaSSIF solution; type: physicochemical; conditions: room temperature, stirred overnight
Description: Efficacy Experimental Example 9: Test of Saturated Solubility of Samples in FaSSIF Solution
About 0.21 g of sodium hydroxide, about 2.24 g of sodium dihydrogen phosphate dihydrate, and 3.09 g of sodium chloride were weighed out and dissolved in 500 mL of water, and after dissolution, the pH was adjusted to 6.5 with 1 N sodium hydroxide or 1 N hydrochloric acid.
112 mg of FaSSIF solid was weighed out and placed in a 50 mL volumetric flask, and the buffer described above was added for dissolution. The resulting solution was diluted to volume, mixed well, and left to stand at room temperature for 2 h or more.
Test sample: About 1 mg of the test sample was taken, and 1 mL of FaSSIF solution was added. The mixture was stirred at room temperature overnight and centrifuged, and the supernatant was collected and injected for analysis.
Reference sample solution: About 1.5 mg of the test sample was precisely weighed out and placed in a 50 mL volumetric flask, and DMF was added for dissolution. The resulting solution was diluted to volume and mixed well.
The peak of the main component of the reference sample and the peak of the test sample with the same retention time were integrated, and the concentration thereof in the FaSSIF solution was calculated according to the external standard method.

[2] = Stability test in liver microsomes; type: in vitro ADME, SD rat; conditions: rat liver microsomes, 0.5 mg/mL, 1.0 µM substrate
Description: (§1) Phase I metabolic stability of the test compounds in liver microsomes of CD-1 mice, Sprague-Dawley rats, and humans was assessed.
(§2) The animal and human liver microsomes used in the test system were purchased from Xenotech, Corning, or other qualified suppliers and stored in a freezer at a temperature below -60 °C prior to use. The information of the animal and human liver microsomes used was as follows:
(§3) The test samples and the reference compounds were separately incubated with animal and human liver microsomes at 37±1 °C for a period of incubation time of up to 60 min. The samples were taken out at the indicated time points, and the reaction was stopped with acetonitrile or another organic solvent containing an internal standard. After centrifugation, the resulting supernatants were assayed by the liquid chromatography-tandem mass spectrometry (LC-MS/MS) method.
(§4) Microsomes of each species were diluted into a 2× working solution with a 100 mM potassium phosphate buffer. […]
(§5) Incubation was performed in a 96-well plate. Eight incubation plates were prepared and designated T0, T5, T15, T30, T45, T60, Blank60, and NCF60, respectively. The first 6 plates corresponded to reaction time points of 0 min, 5 min, 15 min, 30 min, 45 min, and 60 min, respectively. No test sample or reference compound was added to the Blank60 plate, and samples were taken after 60 min of incubation. In the NCF60 plate, incubation was performed for 60 min using the potassium phosphate buffer instead of the NADPH regeneration system solution. Three replicates were made for samples in all conditions.
(§6) The microsomes and the test sample or reference compound were mixed, and then the incubation plates Blank60, T5, T15, T30, T45, and T60 except for T0 and NCF60 were placed in a 37 °C water bath for pre-incubation for about 10 min. In the incubation plate T0, a stop solution was first added, followed by the addition of the NADPH regeneration system working solution, and 98 µL of the potassium phosphate buffer was added to each sample well of the incubation plate NCF60 to initiate the reaction. After the pre-incubation of the incubation plates Blank60, T5, T15, T30, T45, and T60 was completed, 98 µL of the NADPH regeneration system working solution was added to each sample well to initiate the reaction. The reaction temperature was 37±1 °C, the final volume of the reaction was 200 µL, and the reaction system included 0.5 mg/mL microsomes, 1.0 µM substrate, 1 mM NADP, 6 mM ISO, and 1 unit/mL IDH.
(§7) At 5 min, 15 min, 30 min, 45 min, and 60 min, a cold stop solution containing an internal standard was added to the reaction plate to stop the reaction.
(§8) All the reaction plates after the reaction was stopped were shaken well and centrifuged at 3220× g at 4 °C for 20 min. After the supernatant was diluted at a certain ratio, LC-MS/MS analysis was performed.
(§9) Sample analysis was performed by the liquid chromatography-tandem mass spectrometry (LC-MS/MS) method without standard curves and quality control samples. Semi-quantitative determination was performed according to the ratio of the analyte peak area to the internal standard peak area. The retention times of the analyte and internal standard, the chromatogram acquisition, and chromatogram integration were processed using the Analyst software (Sciex, Framingham, Massachusetts, USA).
(§10) According to the well stir model, the hepatic intrinsic clearance and hepatic clearance can be converted through the following formula. CL(liver) = (CLint(liver)×Qh)/(CLint(liver)+Qh) [formula]

[3] = Stability test in liver microsomes; type: in vitro ADME; conditions: Human liver microsomes, 0.5 mg/mL, 1.0 µM substrate
Description: as §1, §2, §3, §4, §5, §6, §7, §8, §9, §10

H226 cells = test: Pharmacodynamic test, H226 subcutaneous xenograft; type: in vivo, nude mice (BALB/c nu/nu)
Description: Healthy female nude mice (BALB/c nu/nu) aged 6-8 weeks were housed in an SPF environment in accordance with animal ethical guidelines. The well-growing 10^7 H226 cells were harvested through trypsin digestion, washed in phosphate-buffered saline (PBS), and then resuspended in PBS containing 50% matrigel (BD Biosciences).
Subcutaneous injection was then performed at the dorsolateral sites of the mice, and the tumor volume was measured once every three days thereafter. When the tumor volume reached around 150-200 mm^3, the mice were randomly assigned to different treatment groups. Any one of the compounds described herein was prepared accordingly and administered at an appropriate dose. Finally, the tumor growth in the nude mice was analyzed after 4 to 6 weeks based on the growth of the tumors.

[4] = target: T1, Cytochrome Oxidase P450 3A4-M (Homo sapiens, UniProt P08684); test: Inhibition of cytochrome oxidase P450; type: in vitro ADME; conditions: liver microsomes
T1 construct: a biochemical reaction of prepared liver microsomes supplemented with a redox coenzyme; from tissue; host or cells: liver microsomes
Description: (§11) Efficacy Experimental Example 5: Inhibition of Cytochrome Oxidase P450
(§12) 100 mM K-Buffer: 9.5 mL of stock solution A was mixed with 40.5 mL of stock solution B, the total volume was adjusted to […] with ultrapure water, and the buffer was titrated to pH 7.4 with KOH or H3PO4.
(§13) The test substance powder was prepared into a stock solution at a certain concentration with DMSO or another organic solvent, which was then further diluted with a suitable organic solvent.
(§14) The liver microsomal in vitro incubation system for the CYP450 enzyme metabolism phenotype study was a biochemical reaction of prepared liver microsomes supplemented with a redox coenzyme and an enzyme-specific selective inhibitor under simulated physiological temperature and environment conditions.
(§15) The concentration of the parent drug or a metabolite thereof in the incubation solution was determined by LC-MS/MS.

[5] = target: T2, Cytochrome Oxidase P450 2D6 (Homo sapiens, UniProt P10635); test: Inhibition of cytochrome oxidase P450; type: in vitro ADME; conditions: liver microsomes
T2 construct: a biochemical reaction of prepared liver microsomes supplemented with a redox coenzyme; from tissue; host or cells: liver microsomes
Description: as §11, §12, §13, §14, §15

[6] = target: T3, Cytochrome Oxidase P450 2C9 (Homo sapiens, UniProt P11712); test: Inhibition of cytochrome oxidase P450; type: in vitro ADME; conditions: liver microsomes
T3 construct: a biochemical reaction of prepared liver microsomes supplemented with a redox coenzyme; from tissue; host or cells: liver microsomes
Description: as §11, §12, §13, §14, §15

[7] = target: T4, Cytochrome Oxidase P450 2C19 (Homo sapiens, UniProt P33261); test: Inhibition of cytochrome oxidase P450; type: in vitro ADME; conditions: liver microsomes
T4 construct: a biochemical reaction of prepared liver microsomes supplemented with a redox coenzyme; from tissue; host or cells: liver microsomes
Description: as §11, §12, §13, §14, §15

in vivo = conditions: mouse, plasma, po
Description: After adding 5% DMSO, the mixture was vortexed. 15% HS15 was then added, and the mixture was vortexed again. Finally, a 10% aqueous cyclodextrin solution was added, and the resulting mixture was vortexed to prepare the final concentration solution or suspension.

T4 sequence (P33261 whole entry): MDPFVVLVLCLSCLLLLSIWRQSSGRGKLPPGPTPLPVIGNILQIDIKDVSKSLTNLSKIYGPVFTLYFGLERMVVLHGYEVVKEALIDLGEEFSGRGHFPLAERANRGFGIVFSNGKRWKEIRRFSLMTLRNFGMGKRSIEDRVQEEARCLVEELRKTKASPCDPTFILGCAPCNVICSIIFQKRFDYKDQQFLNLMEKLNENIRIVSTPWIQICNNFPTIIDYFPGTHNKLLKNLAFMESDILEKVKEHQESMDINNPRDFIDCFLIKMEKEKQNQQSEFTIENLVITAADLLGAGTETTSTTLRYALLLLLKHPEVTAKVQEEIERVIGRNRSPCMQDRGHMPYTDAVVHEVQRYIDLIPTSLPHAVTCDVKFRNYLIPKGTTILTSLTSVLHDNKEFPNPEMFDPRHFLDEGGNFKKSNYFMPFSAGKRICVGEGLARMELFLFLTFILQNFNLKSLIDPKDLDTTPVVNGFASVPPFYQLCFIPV
T1 sequence (P08684 whole entry): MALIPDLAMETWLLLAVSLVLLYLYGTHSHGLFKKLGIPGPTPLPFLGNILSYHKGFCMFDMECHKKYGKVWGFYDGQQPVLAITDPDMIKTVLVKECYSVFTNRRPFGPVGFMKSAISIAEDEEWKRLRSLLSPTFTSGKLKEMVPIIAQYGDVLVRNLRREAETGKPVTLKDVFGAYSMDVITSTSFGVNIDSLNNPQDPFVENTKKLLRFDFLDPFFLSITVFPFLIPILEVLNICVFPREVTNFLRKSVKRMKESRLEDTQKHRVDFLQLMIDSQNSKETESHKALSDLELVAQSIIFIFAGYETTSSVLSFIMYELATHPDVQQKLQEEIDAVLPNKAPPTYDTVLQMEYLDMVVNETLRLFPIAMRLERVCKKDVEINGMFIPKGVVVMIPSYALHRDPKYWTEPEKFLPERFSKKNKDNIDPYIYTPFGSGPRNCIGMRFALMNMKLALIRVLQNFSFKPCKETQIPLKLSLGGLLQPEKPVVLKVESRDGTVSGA
T2 sequence (P10635 whole entry): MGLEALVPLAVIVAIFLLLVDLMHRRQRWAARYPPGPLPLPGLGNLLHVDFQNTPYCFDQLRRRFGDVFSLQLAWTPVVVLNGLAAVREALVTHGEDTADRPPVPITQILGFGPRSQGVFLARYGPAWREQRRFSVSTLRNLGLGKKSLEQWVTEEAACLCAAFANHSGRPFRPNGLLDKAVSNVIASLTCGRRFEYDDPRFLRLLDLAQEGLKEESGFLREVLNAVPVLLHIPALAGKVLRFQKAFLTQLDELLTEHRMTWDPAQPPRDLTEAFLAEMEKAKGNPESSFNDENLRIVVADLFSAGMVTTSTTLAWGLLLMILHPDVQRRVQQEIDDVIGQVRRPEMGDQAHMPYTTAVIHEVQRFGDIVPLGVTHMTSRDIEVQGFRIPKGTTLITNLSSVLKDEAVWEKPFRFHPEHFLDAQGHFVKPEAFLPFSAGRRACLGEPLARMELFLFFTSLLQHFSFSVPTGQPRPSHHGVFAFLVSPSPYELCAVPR
T3 sequence (P11712 whole entry): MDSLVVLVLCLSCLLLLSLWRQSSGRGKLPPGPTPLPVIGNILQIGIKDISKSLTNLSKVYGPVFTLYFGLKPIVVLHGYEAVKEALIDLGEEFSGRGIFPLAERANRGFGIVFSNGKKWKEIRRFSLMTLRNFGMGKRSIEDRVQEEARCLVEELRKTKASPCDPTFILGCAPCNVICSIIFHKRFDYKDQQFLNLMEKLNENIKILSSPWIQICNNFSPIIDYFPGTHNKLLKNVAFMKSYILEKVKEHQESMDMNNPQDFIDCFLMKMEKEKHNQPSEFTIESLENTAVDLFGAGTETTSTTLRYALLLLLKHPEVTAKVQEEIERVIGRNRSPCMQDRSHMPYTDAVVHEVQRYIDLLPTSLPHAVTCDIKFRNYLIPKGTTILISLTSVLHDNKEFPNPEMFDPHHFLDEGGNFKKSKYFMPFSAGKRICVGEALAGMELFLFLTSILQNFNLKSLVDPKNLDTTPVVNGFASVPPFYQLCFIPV

SMILES	FaSSIF(pH = 6.5) [1] [ug/mL]	half-life at 1 µM [2] [min]	half-life at 1 µM [3] [min]	TGI (H226 cells; 50mpk QD)	TGI (H226 cells; 100mpk QD) [mpk QD TGI = 113.05%]	IC50 [4] [µM]	IC50 [5] [µM]	IC50 [6] [µM]	IC50 [7] [µM]	AUC(0-t) (in vivo; 100 mg/kg) [µM·h]	TGI (H226 cells; 5mpk QD) [mpk QD TGI = 111.84%]	AUC(0-t) (in vivo; 200 mg/kg) [µM·h]	Cmax (in vivo; 200 mg/kg) [µM]	TGI (H226 cells; 25mpk QD) [mpk QD TGI = 100.89%]	TGI (H226 cells; 10mpk QD)	TGI (H226 cells; 30mpk QD) [mpk QD TGI = 113.45%]
Cc1ccc(Oc2ccc(C(F)(F)F)cc2)c2ccc(P(C)(C)=O)cc12 [Example 24]	193.3	82	166													
CP(C)(=O)c1ccc(Nc2ccc(C(F)(F)F)cc2)c(-c2ncccn2)c1 [Example 12]		> 145	> 145	50mpk QD TGI = 111.58%												
CP(C)(=O)c1ccc2c(c1)c1ccccc1n2-c1ccc(C(F)(F)F)cc1 [Example 1]	>950.5	> 145	> 145	50mpk QD TGI = 108.39%	100	> 10	> 10	> 10	> 10							
CP(C)(=O)c1ccc2c(Oc3ccc(C(F)(F)F)cc3)cccc2c1 [Example 7]	1499.5	> 145	> 145			> 10	> 10	> 10	> 10	2830	5					
CP(C)(=O)c1ccc(Nc2ccc(C(F)(F)F)cc2)c(-c2ccccn2)c1 [Example 10]	89.75	> 145	> 145									3380	148	25		
CP(C)(=O)c1ccc2c(c1)c1cccnc1n2-c1ccc(C(F)(F)F)cc1 [Example 5]	781.7															
Cn1cnc(-c2cc(P(C)(C)=O)cnc2Nc2ccc(C(F)(F)F)cc2)c1 [Example 8]	433.97	> 145	> 145			> 10	> 10	> 10	> 10			2430			10mpk QD TGI = 115.60%	
Cn1cnc(-c2cc(P(C)(C)=O)ccc2Nc2ccc(C(F)(F)F)cc2)c1 [Example 14]	674.6	> 145	> 145			> 10	> 10	> 10	> 10			3140	141		10mpk QD TGI = 100.38%	
CP(C)(=O)c1cnc(Nc2ccc(C(F)(F)F)cc2)c(-c2cn3c(n2)CCC3)c1 [Example 22]	337.6	> 145	> 145			> 10	> 10	> 10	> 10			2520			10mpk QD TGI = 106.26%	30
